# Experimental data taken from ChEMBL document CHEMBL3400108, “Synthesis and biological evaluation of open-chain analogs of cyclic peptides as inhibitors of cellular Shp2 activity” (Bioorg Med Chem, 2015).
# Non-standard residues stand in square brackets, D forms with d. Residues, ends and D or L forms follow the SMILES beside them. Groups on a side chain read outwards from the residue. *: point of attachment. Phe(4-Br) = N[C@@H](Cc1ccc(Br)cc1)C(=O)O; Phe(4-Cl) = N[C@@H](Cc1ccc(Cl)cc1)C(=O)O; Phe(4-F) = N[C@@H](Cc1ccc(F)cc1)C(=O)O; NEt2 = CCN(CC)*
# System: HeLa
# Assay: Antitumor activity against human HeLa cells
# Format: functional, cell-based
row,Compound,IC50 [µg/mL]
1,CCN(CC)C(=O)[C@H](Cc1ccc(Br)cc1)NC(=O)[C@H](CC(C)C)NC(=O)[C@@H](NC(=O)[C@@H](N)COC(=O)[C@H](CC(C)C)NC(C)=O)C(C)C (H-S([Leu-Ac])VL[Phe(4-Br)]-NEt2),> 50
2,CCN(CC)C(=O)[C@H](Cc1ccc(Cl)cc1)NC(=O)[C@H](CC(C)C)NC(=O)[C@@H](NC(=O)[C@@H](N)COC(=O)[C@H](CC(C)C)NC(C)=O)C(C)C (H-S([Leu-Ac])VL[Phe(4-Cl)]-NEt2),> 50
3,CCN(CC)C(=O)[C@H](Cc1ccc(F)cc1)NC(=O)[C@H](CC(C)C)NC(=O)[C@@H](NC(=O)[C@@H](N)COC(=O)[C@H](CC(C)C)NC(C)=O)C(C)C (H-S([Leu-Ac])VL[Phe(4-F)]-NEt2),> 50

# System: MDA-MB-231
# Assay: Antitumor activity against human MDA-MB-231 cells
# Format: functional, cell-based
row,Compound,IC50 [µg/mL]
1,CCN(CC)C(=O)[C@H](Cc1ccc(Br)cc1)NC(=O)[C@H](CC(C)C)NC(=O)[C@@H](NC(=O)[C@@H](N)COC(=O)[C@H](CC(C)C)NC(C)=O)C(C)C (H-S([Leu-Ac])VL[Phe(4-Br)]-NEt2),> 50
2,CCN(CC)C(=O)[C@H](Cc1ccc(Cl)cc1)NC(=O)[C@H](CC(C)C)NC(=O)[C@@H](NC(=O)[C@@H](N)COC(=O)[C@H](CC(C)C)NC(C)=O)C(C)C (H-S([Leu-Ac])VL[Phe(4-Cl)]-NEt2),> 50
3,CCN(CC)C(=O)[C@H](Cc1ccc(F)cc1)NC(=O)[C@H](CC(C)C)NC(=O)[C@@H](NC(=O)[C@@H](N)COC(=O)[C@H](CC(C)C)NC(C)=O)C(C)C (H-S([Leu-Ac])VL[Phe(4-F)]-NEt2),> 50

# System: not listed separately
# Assay: Inhibition of IMPDH (unknown origin)
# Design: species or system Homo sapiens
row,Compound,IC50 [µg/mL]
1,CCN(CC)C(=O)[C@H](Cc1ccc(Br)cc1)NC(=O)[C@H](CC(C)C)NC(=O)[C@@H](NC(=O)[C@@H](N)COC(=O)[C@H](CC(C)C)NC(C)=O)C(C)C (H-S([Leu-Ac])VL[Phe(4-Br)]-NEt2),> 100
2,CCN(CC)C(=O)[C@H](Cc1ccc(Cl)cc1)NC(=O)[C@H](CC(C)C)NC(=O)[C@@H](NC(=O)[C@@H](N)COC(=O)[C@H](CC(C)C)NC(C)=O)C(C)C (H-S([Leu-Ac])VL[Phe(4-Cl)]-NEt2),> 100
3,CCN(CC)C(=O)[C@H](Cc1ccc(F)cc1)NC(=O)[C@H](CC(C)C)NC(=O)[C@@H](NC(=O)[C@@H](N)COC(=O)[C@H](CC(C)C)NC(C)=O)C(C)C (H-S([Leu-Ac])VL[Phe(4-F)]-NEt2),> 100

# Target: Acetylcholinesterase (Homo sapiens, UniProt P22303)
# Sequence (P22303 whole entry): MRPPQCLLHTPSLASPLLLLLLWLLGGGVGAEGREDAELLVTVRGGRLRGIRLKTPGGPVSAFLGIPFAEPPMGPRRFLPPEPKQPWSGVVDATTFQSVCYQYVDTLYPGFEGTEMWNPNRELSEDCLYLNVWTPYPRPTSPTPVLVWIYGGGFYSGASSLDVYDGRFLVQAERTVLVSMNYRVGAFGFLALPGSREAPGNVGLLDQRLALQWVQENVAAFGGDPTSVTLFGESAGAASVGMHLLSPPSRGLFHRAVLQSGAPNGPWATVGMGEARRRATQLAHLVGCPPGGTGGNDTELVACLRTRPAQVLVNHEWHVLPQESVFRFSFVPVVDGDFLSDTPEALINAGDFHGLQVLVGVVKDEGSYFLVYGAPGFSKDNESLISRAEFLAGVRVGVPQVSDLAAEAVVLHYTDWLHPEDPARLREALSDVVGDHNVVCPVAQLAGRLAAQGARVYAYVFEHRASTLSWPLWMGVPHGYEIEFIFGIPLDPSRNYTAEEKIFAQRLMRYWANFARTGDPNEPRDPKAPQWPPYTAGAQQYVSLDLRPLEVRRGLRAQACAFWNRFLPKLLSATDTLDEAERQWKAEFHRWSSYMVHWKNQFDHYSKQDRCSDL
# Assay: Inhibition of AchE (unknown origin)
row,Compound,IC50 [µM]
1,CCN(CC)C(=O)[C@H](Cc1ccc(Br)cc1)NC(=O)[C@H](CC(C)C)NC(=O)[C@@H](NC(=O)[C@@H](N)COC(=O)[C@H](CC(C)C)NC(C)=O)C(C)C (H-S([Leu-Ac])VL[Phe(4-Br)]-NEt2),> 133
2,CCN(CC)C(=O)[C@H](Cc1ccc(Cl)cc1)NC(=O)[C@H](CC(C)C)NC(=O)[C@@H](NC(=O)[C@@H](N)COC(=O)[C@H](CC(C)C)NC(C)=O)C(C)C (H-S([Leu-Ac])VL[Phe(4-Cl)]-NEt2),> 141
3,CCN(CC)C(=O)[C@H](Cc1ccc(F)cc1)NC(=O)[C@H](CC(C)C)NC(=O)[C@@H](NC(=O)[C@@H](N)COC(=O)[C@H](CC(C)C)NC(C)=O)C(C)C (H-S([Leu-Ac])VL[Phe(4-F)]-NEt2),> 144

# System: Proteasome
# Assay: Inhibition of proteasome (unknown origin)
# Format: subcellular, Homo sapiens
row,Compound,IC50 [µg/mL]
1,CCN(CC)C(=O)[C@H](Cc1ccc(Br)cc1)NC(=O)[C@H](CC(C)C)NC(=O)[C@@H](NC(=O)[C@@H](N)COC(=O)[C@H](CC(C)C)NC(C)=O)C(C)C (H-S([Leu-Ac])VL[Phe(4-Br)]-NEt2),> 100
2,CCN(CC)C(=O)[C@H](Cc1ccc(Cl)cc1)NC(=O)[C@H](CC(C)C)NC(=O)[C@@H](NC(=O)[C@@H](N)COC(=O)[C@H](CC(C)C)NC(C)=O)C(C)C (H-S([Leu-Ac])VL[Phe(4-Cl)]-NEt2),> 100
3,CCN(CC)C(=O)[C@H](Cc1ccc(F)cc1)NC(=O)[C@H](CC(C)C)NC(=O)[C@@H](NC(=O)[C@@H](N)COC(=O)[C@H](CC(C)C)NC(C)=O)C(C)C (H-S([Leu-Ac])VL[Phe(4-F)]-NEt2),> 100

# Target: T1, Monoglyceride lipase (Homo sapiens, UniProt Q99685)
# T1 sequence (Q99685 whole entry): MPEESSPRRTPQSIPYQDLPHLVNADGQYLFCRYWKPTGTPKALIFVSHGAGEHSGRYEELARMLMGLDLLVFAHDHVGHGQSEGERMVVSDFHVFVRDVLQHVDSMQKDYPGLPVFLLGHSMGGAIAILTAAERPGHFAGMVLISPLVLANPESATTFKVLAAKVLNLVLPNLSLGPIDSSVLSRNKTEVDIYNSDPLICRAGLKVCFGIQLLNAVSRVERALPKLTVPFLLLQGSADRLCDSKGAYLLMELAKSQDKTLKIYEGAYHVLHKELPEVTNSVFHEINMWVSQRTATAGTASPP
# Assay: Inhibition of MAGL (unknown origin)
row,Compound,IC50 [µM]
1,CCN(CC)C(=O)[C@H](Cc1ccc(Br)cc1)NC(=O)[C@H](CC(C)C)NC(=O)[C@@H](NC(=O)[C@@H](N)COC(=O)[C@H](CC(C)C)NC(C)=O)C(C)C (H-S([Leu-Ac])VL[Phe(4-Br)]-NEt2),> 133
2,CCN(CC)C(=O)[C@H](Cc1ccc(Cl)cc1)NC(=O)[C@H](CC(C)C)NC(=O)[C@@H](NC(=O)[C@@H](N)COC(=O)[C@H](CC(C)C)NC(C)=O)C(C)C (H-S([Leu-Ac])VL[Phe(4-Cl)]-NEt2),> 141
3,CCN(CC)C(=O)[C@H](Cc1ccc(F)cc1)NC(=O)[C@H](CC(C)C)NC(=O)[C@@H](NC(=O)[C@@H](N)COC(=O)[C@H](CC(C)C)NC(C)=O)C(C)C (H-S([Leu-Ac])VL[Phe(4-F)]-NEt2),> 144

# Target: Cathepsin B (Homo sapiens, UniProt P07858)
# Assay: Inhibition of cathepsin B (unknown origin)
row,Compound,IC50 [µM]
1,CCN(CC)C(=O)[C@H](Cc1ccc(Br)cc1)NC(=O)[C@H](CC(C)C)NC(=O)[C@@H](NC(=O)[C@@H](N)COC(=O)[C@H](CC(C)C)NC(C)=O)C(C)C (H-S([Leu-Ac])VL[Phe(4-Br)]-NEt2),> 133
2,CCN(CC)C(=O)[C@H](Cc1ccc(Cl)cc1)NC(=O)[C@H](CC(C)C)NC(=O)[C@@H](NC(=O)[C@@H](N)COC(=O)[C@H](CC(C)C)NC(C)=O)C(C)C (H-S([Leu-Ac])VL[Phe(4-Cl)]-NEt2),> 141
3,CCN(CC)C(=O)[C@H](Cc1ccc(F)cc1)NC(=O)[C@H](CC(C)C)NC(=O)[C@@H](NC(=O)[C@@H](N)COC(=O)[C@H](CC(C)C)NC(C)=O)C(C)C (H-S([Leu-Ac])VL[Phe(4-F)]-NEt2),> 144

# Target: T2, Tyrosine-protein phosphatase non-receptor type 11 (Homo sapiens) (UniProt Q06124)
# T2 sequence (whole entry): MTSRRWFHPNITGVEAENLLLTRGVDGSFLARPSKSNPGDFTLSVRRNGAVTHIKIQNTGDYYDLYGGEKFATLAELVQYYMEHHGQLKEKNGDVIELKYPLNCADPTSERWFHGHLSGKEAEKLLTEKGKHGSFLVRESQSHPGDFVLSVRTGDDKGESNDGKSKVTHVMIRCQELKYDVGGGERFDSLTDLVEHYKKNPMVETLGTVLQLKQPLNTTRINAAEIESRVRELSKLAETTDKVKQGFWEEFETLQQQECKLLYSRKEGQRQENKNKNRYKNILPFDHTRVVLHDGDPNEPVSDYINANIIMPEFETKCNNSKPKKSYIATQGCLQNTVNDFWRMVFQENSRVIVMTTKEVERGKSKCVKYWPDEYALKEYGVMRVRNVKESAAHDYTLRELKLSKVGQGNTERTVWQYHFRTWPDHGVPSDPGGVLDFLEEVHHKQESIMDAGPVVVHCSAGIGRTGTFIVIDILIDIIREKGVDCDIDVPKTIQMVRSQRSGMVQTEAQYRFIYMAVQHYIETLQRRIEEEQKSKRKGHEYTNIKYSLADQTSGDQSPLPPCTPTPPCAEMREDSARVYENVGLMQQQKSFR
# Assay: Inhibition of SHP2 (unknown origin) at 100 uM
row,Compound,inhibition [%]
1,CCN(CC)C(=O)[C@H](Cc1ccc(Br)cc1)NC(=O)[C@H](CC(C)C)NC(=O)[C@@H](NC(=O)[C@@H](N)COC(=O)[C@H](CC(C)C)NC(C)=O)C(C)C (H-S([Leu-Ac])VL[Phe(4-Br)]-NEt2),96
2,CCN(CC)C(=O)[C@H](Cc1ccc(Cl)cc1)NC(=O)[C@H](CC(C)C)NC(=O)[C@@H](NC(=O)[C@@H](N)COC(=O)[C@H](CC(C)C)NC(C)=O)C(C)C (H-S([Leu-Ac])VL[Phe(4-Cl)]-NEt2),89
3,CCN(CC)C(=O)[C@H](Cc1ccc(F)cc1)NC(=O)[C@H](CC(C)C)NC(=O)[C@@H](NC(=O)[C@@H](N)COC(=O)[C@H](CC(C)C)NC(C)=O)C(C)C (H-S([Leu-Ac])VL[Phe(4-F)]-NEt2),97

# Target: T2, Tyrosine-protein phosphatase non-receptor type 11 (Homo sapiens)
# Assay: Inhibition of SHP2 (unknown origin) at 50 uM
row,Compound,inhibition [%]
1,CCN(CC)C(=O)[C@H](Cc1ccc(Br)cc1)NC(=O)[C@H](CC(C)C)NC(=O)[C@@H](NC(=O)[C@@H](N)COC(=O)[C@H](CC(C)C)NC(C)=O)C(C)C (H-S([Leu-Ac])VL[Phe(4-Br)]-NEt2),78
2,CCN(CC)C(=O)[C@H](Cc1ccc(Cl)cc1)NC(=O)[C@H](CC(C)C)NC(=O)[C@@H](NC(=O)[C@@H](N)COC(=O)[C@H](CC(C)C)NC(C)=O)C(C)C (H-S([Leu-Ac])VL[Phe(4-Cl)]-NEt2),49
3,CCN(CC)C(=O)[C@H](Cc1ccc(F)cc1)NC(=O)[C@H](CC(C)C)NC(=O)[C@@H](NC(=O)[C@@H](N)COC(=O)[C@H](CC(C)C)NC(C)=O)C(C)C (H-S([Leu-Ac])VL[Phe(4-F)]-NEt2),55

# Target: T2, Tyrosine-protein phosphatase non-receptor type 11 (Homo sapiens)
# Assay: Inhibition of SHP2 (unknown origin) at 20 uM
row,Compound,inhibition [%]
1,CCN(CC)C(=O)[C@H](Cc1ccc(Br)cc1)NC(=O)[C@H](CC(C)C)NC(=O)[C@@H](NC(=O)[C@@H](N)COC(=O)[C@H](CC(C)C)NC(C)=O)C(C)C (H-S([Leu-Ac])VL[Phe(4-Br)]-NEt2),46
2,CCN(CC)C(=O)[C@H](Cc1ccc(Cl)cc1)NC(=O)[C@H](CC(C)C)NC(=O)[C@@H](NC(=O)[C@@H](N)COC(=O)[C@H](CC(C)C)NC(C)=O)C(C)C (H-S([Leu-Ac])VL[Phe(4-Cl)]-NEt2),21
3,CCN(CC)C(=O)[C@H](Cc1ccc(F)cc1)NC(=O)[C@H](CC(C)C)NC(=O)[C@@H](NC(=O)[C@@H](N)COC(=O)[C@H](CC(C)C)NC(C)=O)C(C)C (H-S([Leu-Ac])VL[Phe(4-F)]-NEt2),32

# Target: T2, Tyrosine-protein phosphatase non-receptor type 11 (Homo sapiens)
# Assay: Inhibition of SHP2 (unknown origin) at 25 uM
row,Compound,inhibition [%]
1,CCN(CC)C(=O)[C@H](Cc1ccc(Br)cc1)NC(=O)[C@H](CC(C)C)NC(=O)[C@@H](NC(=O)[C@@H](N)COC(=O)[C@H](CC(C)C)NC(C)=O)C(C)C (H-S([Leu-Ac])VL[Phe(4-Br)]-NEt2),49

# Target: T2, Tyrosine-protein phosphatase non-receptor type 11 (Homo sapiens)
# Assay: Inhibition of SHP2 (unknown origin) at 10 uM
row,Compound,inhibition [%]
1,CCN(CC)C(=O)[C@H](Cc1ccc(Br)cc1)NC(=O)[C@H](CC(C)C)NC(=O)[C@@H](NC(=O)[C@@H](N)COC(=O)[C@H](CC(C)C)NC(C)=O)C(C)C (H-S([Leu-Ac])VL[Phe(4-Br)]-NEt2),26

# Target: T2, Tyrosine-protein phosphatase non-receptor type 11 (Homo sapiens)
# Assay: Inhibition of SHP2 (unknown origin) at 5 uM
row,Compound,inhibition [%]
1,CCN(CC)C(=O)[C@H](Cc1ccc(Br)cc1)NC(=O)[C@H](CC(C)C)NC(=O)[C@@H](NC(=O)[C@@H](N)COC(=O)[C@H](CC(C)C)NC(C)=O)C(C)C (H-S([Leu-Ac])VL[Phe(4-Br)]-NEt2),21

# Target: T3, Tyrosine-protein phosphatase non-receptor type 11 (Homo sapiens, UniProt Q06124)
# T3 sequence (Q06124 whole entry): T2 sequence (whole entry)
# Assay: Inhibition of SHP2 (unknown origin)
row,Compound,IC50 [µM]
1,CCN(CC)C(=O)[C@H](Cc1ccc(Br)cc1)NC(=O)[C@H](CC(C)C)NC(=O)[C@@H](NC(=O)[C@@H](N)COC(=O)[C@H](CC(C)C)NC(C)=O)C(C)C (H-S([Leu-Ac])VL[Phe(4-Br)]-NEt2),33.2
